Assays:
Assay type in all cases: cell-based
[1] = tested on: HSV-1; experiment: Plaque forming assay, Hep-2 cell monolayers infected with HSV-1; details: Hep-2 cells, 100 μM
Description: The ability of a virus to infect cells can be assessed using a plaque assay. In a plaque assay, an infected cell culture is grown under a nutrient gel. During culturing, the virus being study infects cells and replicates. However, the spread of virus to other cells is limited by the overlaying nutrient gel. As such, replicated virus released from one infected cell can only infect neighboring cells. The spread of virus amongst neighboring cells creates a plaque that can be visualized by staining. By counting the visible plaques, the amount of plaque forming units (pfu) per mL can be determined. If cells treated with a compound display a reduced amount of pfu compared to cells not treated with the compound after being infected with same amount of viral particles, then the reduction in pfu would have to be result of the ability of the […] virus. Thus, the ability of a compound in accordance with General Formula 1, including derivatives in accordance with any of General Formulae 1-1 to 1-20, to inhibit the ability of HSV-1 to proliferate can be assessed with a plaque assay.
Hep-2 cell monolayers were placed in well plates. The plated Hep-2 cells were treated with either DSMO as a control, 100 μM SD-29 or 100 μM SD29-12. A total of 6 well plates were prepared for each treatment condition. To each treated well plate an HSV-1 infecting solution comprising 1 mL of supernatants containing of the same amount of serially diluted HSV-1 particles were added. Accordingly, the treated well plates were infected with infection solutions containing the same amount of HSV-1 particles. After adsorption for 2 hours, the medium was removed and the treated cells were washed twice with serum-free DMEM and overlaid with phenol-free DMEM containing 5% FCS, 0.5% low-melting point agarose (GIBCO), and 1% penicillin-streptomycin. After either 0, 6, 12, 24 hours, the plaques present in each treated well plate were stained red and the number of plaques presented counted. Table 1 reports the mean plaque forming unit (pfu) determined for each treated well plate after averaging the number of pfu from the different plates receiving the same treatment.

[2] = tested on: HIV1 modified pNL4-3.Luc.R-E-virus; experiment: Luciferase luminescence of CEM T cells infected with HIV1 modified pNL4-3.Luc.R-E-virus; design: dose or concentration left out as unconfirmed; details: CEM T cells pretreated before infection; vs untreated and DMSO; FIG. 2
Text: The expression of the protein assessed may be native, i.e. naturally occurring within the genome of the virus to be treated. In combination or the alternative, expression of a protein introduced to the viral genome may be assessed. Assessing the expression of an introduced protein may enable an assessment of viral proliferation by means not normally permitted by the native viral genome. For example, proliferation of the HIV1 virus can be assessed using luminescence with the HIV1 modified pNL4-3.Luc.R-E-virus. […] Accordingly, proliferation of the HIV1 modified pNL4-3.Luc.R-E-virus will entail production of the luciferase protein. […]
Accordingly, compounds in accordance with General Formula 1, including derivatives in accordance with General Formulae 1-1 to 1-20, or pharmaceutically acceptable salts thereof, can be assessed for the ability to inhibit proliferation of the HIV1 by infecting CEM T cells with the HIV1 modified pNL4-3.Luc.R-E-virus. […]
Prior to infection with the HIV1 modified pNL4-3.Luc.R-E-virus, the CEM T cells were pretreated with either SD-29 or DMSO ([…]) or left untreated. […] To assess luminescence, 100 μL of the cell suspension and […] of reconstituted luciferase buffer (Luclite Kit, Perkin Elmer) were added to wells and allowed to incubate for 10 minutes. […]

[3] = tested on: HSV-1; experiment: qPCR of ICP-0 mRNA in HSV-1 infected Hep-2 cells; details: 100 μM, 24 hours pretreatment, 0, 6, 12 and 24 hours after infection, vs DMSO, FIG. 8
Text: The inhibition of triggered expression of at least a portion of the HSV-1 genome and the inhibited proliferation of HSV-1, which may be the result of the former, indicate that compounds in accordance with General Formula 1, including derivatives in accordance with any of General Formulae 1-1 to 1-20, can treat viral infections. The treatment provided by compounds in accordance with General Formula 1, including derivatives in accordance with any of General Formulae 1-1 to 1-20, may be the result of either inhibition of transcription of viral mRNAs containing an IRES or the inhibited expression of viral proteins encoded by such within the IRES reading frame of such an mRNA. Determining whether mRNA transcription or protein expression is being inhibited can be accomplished by assessing the amount of mRNA containing an IRES is diminished by treatment with a compound in accordance with General Formula 1, including derivatives in accordance with any of General Formulae 1-1 to 1-20. FIG. 8 reports the amount of mRNA of the IE gene ICP-0 detected in Hep-2 cells following treatment with SD-29.
Hep-2 cells were pretreated with either DSMO as a control, 100 μM SD-29 or 100 μM SD29-12. After 24 hours of pretreatment, the Hep-2 cells were infected with HSV-1. At 0, 6, 12 and 24 hours after infection, the total RNA within the cells was isolated. […]

Q: With `Nn1c(S)nnc1-c1ccc(F)cc1` [SD-29] as the compound, how does the “mean plaque forming unit (pfu)” value ([1]; 0 hpi) read?
A: 0 pfu

Q: And the “mean plaque forming unit (pfu)” value ([1]; 6 hpi)?
A: 0 pfu

Q: What about the “mean plaque forming unit (pfu)” value ([1]; 12 hpi) of the same compound?
A: 100 pfu

Q: And the “mean plaque forming unit (pfu)” value ([1]; 24 hpi)?
A: 180000 pfu

Q: What about the “number of pfu compared to DMSO control (in words)” value ([1]; Table 1 and FIG. 7) of the same compound?
A: reduced number of pfu compared to control

Q: And the “luminescence / proliferation of the HIV1 modified pNL4-3.Luc.R-E-virus” value [2]?
A: significantly reduced proliferation

Q: And the “ICP-0 mRNA level / transcription of IE genes” value [3]?
A: does not inhibit transcription of mRNA corresponding to IE genes
